Measurements: patent US20080214563A1, “Benzimidazole Thiophene Compounds As Plk Modulators” (priority 2005, published 2008)

Experiments:
Type in all cases: cell-based
[1] = test system: RPMI 8226; assay: Cell-Titer Glo Cell Growth Inhibition Assay, RPMI 8226; conditions: Homo sapiens, CellTiter-Glo, 72 h, read-out: CTG RPMI 8226 IC50
Description: (§1) A549-L (human lung), BT474 (human breast), Colo 205 (human colon), H1299 (human lung), Hela (human cervix), HCT-116 (human colon), HN5 (human head and neck), HT29 (human colon), LNCap (human prostate), MCF7 (human breast), MDA-MB468 (human breast), MX-1 (human breast), RPMI 8226 (human peripheral blood), SKOV3 (human ovary) and P388 (murine leukemia) cell lines were cultured in RPMI1640 containing 10% fetal bovine serum at 37° C. in a 5% CO2 incubator. Cell lines were split into T75 flasks (Falcon #353136) two to three days prior to assay set up at density which yields approximately 70-80% confluency at time of harvest for assay. Cells were harvested using 0.25% trypsin with EDTA (Glibco/Invitrogen #25200-056), Cell counts were performed on cell suspensions using Trypan Blue exclusion staining, cells were then plated in 105 uL of culture media per well at the following densities in 96 well Costar #3916 black flat bottom plates: All human cell lines were plated at 500 cells/well. P388 were plated at 250 cells/well. All plates were placed at 5% CO2 37° C. overnight and then test compounds were added the following day. One plate of each cell type is treated with CellTiter-Glo (Promega #G7573) for a day 0 proliferation measurement and read as described below. […]

[2] = test system: Hela; assay: Cell-Titer Glo Cell Growth Inhibition Assay, Hela; conditions: Homo sapiens, CellTiter-Glo, 72 h, read-out: CTG Hela IC50
Description: as §1

[3] = test system: MDA-MB468; assay: Cell-Titer Glo Cell Growth Inhibition Assay, MDA-MB468; conditions: Homo sapiens, MDA-MB-468, CellTiter-Glo, 72 h, read-out: CTG MDA-MB468 IC50
Description: as §1

[4] = test system: HN5; assay: Cell-Titer Glo Cell Growth Inhibition Assay, HN5; conditions: Homo sapiens, CellTiter-Glo, 72 h, read-out: CTG HN5 IC50
Description: as §1

[5] = test system: MCF7; assay: Cell-Titer Glo Cell Growth Inhibition Assay, MCF7; conditions: Homo sapiens, CellTiter-Glo, 72 h, read-out: CTG MCF7 IC50
Description: as §1

[6] = test system: BT474; assay: Cell-Titer Glo Cell Growth Inhibition Assay, BT474; conditions: Homo sapiens; CellTiter-Glo, 72 h, BT 474; read-out: CTG BT 474 IC50
Description: as §1

[7] = test system: LNCap; assay: Cell-Titer Glo Cell Growth Inhibition Assay, LNCap; conditions: Homo sapiens, CellTiter-Glo, 72 h, read-out: CTG LNCap IC50
Description: as §1

[8] = test system: H1299; assay: Cell-Titer Glo Cell Growth Inhibition Assay, H1299; conditions: Homo sapiens, NCI-H1299, CellTiter-Glo, 72 h, read-out: CTG H1299 IC50
Description: as §1

Measured: IC50

C[C@@H](Oc1cc(-n2cnc3cc(-c4cnn(C)c4)ccc32)sc1C(N)=O)c1ccccc1Cl [Example 9, 3-{[(1R)-1-(2-Chlorophenyl)ethyl]oxy}-5-[5-(1-methyl-1H-pyrazol-4-yl)-1H-benzimidazol-1-yl]-2-thiophenecarboxamide]
< 100 nM: all assays above
